{
  "source": "patent US7947668B2",
  "about": "“Aminoalkyl sterol compounds having an anti-tumoral and neuroprotective activity” (Institut National de la Sante et de la Recherche Medicale, priority 2002, dated 2011)",
  "key": {"[1]": {"test_system": "T lymphocytes originating from BALB/c mouse spleens", "assay": "Proliferation of T lymphocytes (tritiated thymidine incorporation)", "type": "cell-based", "conditions": "C57BL/6 dendritic cells in contact with BALB/c T lymphocytes", "description": "C57BL/6 mouse monocytes were collected as indicated in example 48.1. The dendritic cells were obtained as indicated in example 9. After transformation into CDs with the test compound, the cells are treated with an antimitotic agent (mitomycin C at 0.0006 mg/ml) and incubated for 30 minutes at 37° C., in order to block DNA synthesis in the CDs. After this treatment, the cells are washed twice with RPMI 1640 medium supplemented with 10% fetal calf serum.\nBALB/c mouse spleens were also collected and treated as described for the preparation of the C57BL/6 mouse monocytes. The nonadherent cells, which contain the T lymphocytes, are recovered and added to the C57BL/6 mouse dendritic cells. On the fourth day of contact of the cells, tritiated thymidine is added. After incubation for 18 hours, the cells are lyzed with absolute alcohol. The precipitate is suspended in water and then filtered through a cellulose filter. The incorporation of thymidine is measured by scintillation counting (Packard Instrument, Meriden Conn., USA).\nThe adherent monocytes originating from mouse spleens obtained according to example 14.1 were treated with the abovementioned compound at variable doses. […] The lymphocyte proliferation is measured by measuring the incorporation of tritiated thymidine into the DNA."}, "TS/A (H-2^d) cells": {"test_system": "TS/A (H-2^d) cells", "assay": "Cytotoxicity on TS/A mouse mammary adenocarcinoma cells in culture", "type": "cell-based", "description": "The mouse tumoral line TS/A(H-2^d) is a cell line of a spontaneous mammary adenocarcinoma of syngenic mice of BALB/c mice. They are cultured in mycoplasm-free controlled RPMI 1640 medium supplemented with endotoxin-free controlled fetal calf serum (Girco-Brio, 2 mM of glutamine, 100 U/ml of penicillin, 50 μg/ml of streptomycin, essential amino acids and sodium pyruvate.\nThe cytotoxicity appears for doses of 50 μM."}, "[2]": {"test_system": "U937 cells expressing RCPG-HA", "assay": "Overexpression of a membrane receptor in the U937 tumoral cell line", "type": "cell-based, human", "conditions": "10 nM, 12 hours, 48 hours after transfection", "description": "U937 cells were cultured in an “RPMI 1640” medium sold by the company “Gibco BRL”. A plasmid coding for an […] membrane receptor belonging to the superfamily of protein G-coupled receptors and containing an HA label is generated.\nThe U937 cells expressing the receptors are generated by transfection using the “lipofectamine” reagent according to the manufacturer's instructions.\n48 hours after transfection, the transfected cells were treated with 10 nM of compound according to example 9 for 12 hours.\nThese cells were fixed in order to be examined by fluorescence microscopy."}},
  "data": [
    {"smiles": "CC(C)CCC[C@@H](C)[C@H]1CC[C@H]2[C@@H]3C[C@@H](NCCc4c[nH]cn4)[C@@]4(O)C[C@@H](O)CC[C@]4(C)[C@H]3CC[C@]12C", "note": "[Example 9, cholestane-3β,5α-diol-6β-N-[2-ethylamino(1H-imidazol-4-yl)]]", "values": [
      {"measurement": "stimulation of the T lymphocyte proliferation (factor)", "setting": "[1]", "value": 5},
      {"measurement": "toxicity on TS/A cells", "setting": "TS/A (H-2^d) cells; doses of 5 nM and 1 μM, irrespective of the incubation time", "value": "no toxicity is observed"},
      {"measurement": "dose at which cytotoxicity on TS/A appears", "setting": "TS/A (H-2^d) cells; in vitro", "value": 50, "unit": "µM"},
      {"measurement": "expression of RCPG-HA membrane receptor (immunofluorescence)", "setting": "[2]", "value": "expression of a membrane receptor of RCPG type"}
    ]}
  ]
}
